Measurements reported in US9145415B2, “Nitrogen-containing heterocyclic compound or salt thereof” (FUJIFILM Corporation, priority 2012, dated 2015).
Read-outs that look alike come from different tables or passages of the source.

Tests used:
MV4-11 cells = experiment: Leukemia cell proliferation inhibition test (ATPlite), MV4-11; assay type: cell-based; details: Homo sapiens, read-out: MV4-11 cell proliferation inhibition effect
Outline: (§1)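 Proliferation inhibition is quantified from total cellular ATP, measured by luciferase luminescence, after cells grow with compound for 72 hours. The GI50 is the concentration giving half the signal of the 0.1% DMSO control, fitted to a sigmoid curve from duplicate points.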

[1] = target: T1, human FLT3 protein (FLT3 (WT)) (Homo sapiens, UniProt P36888); experiment: FLT3 inhibition test (FLT3 enzyme inhibition, time-resolved fluorescence of substrate peptide phosphorylation); assay type: biochemical; details: read-out: FLT3 (WT) enzyme inhibition activity
T1 construct: human FLT3 protein (intracellular region, 564 to 993 aa); GST; purchased Carna Biosciences; host or cells: baculovirus expression system
T1 sequence (P36888 564-993): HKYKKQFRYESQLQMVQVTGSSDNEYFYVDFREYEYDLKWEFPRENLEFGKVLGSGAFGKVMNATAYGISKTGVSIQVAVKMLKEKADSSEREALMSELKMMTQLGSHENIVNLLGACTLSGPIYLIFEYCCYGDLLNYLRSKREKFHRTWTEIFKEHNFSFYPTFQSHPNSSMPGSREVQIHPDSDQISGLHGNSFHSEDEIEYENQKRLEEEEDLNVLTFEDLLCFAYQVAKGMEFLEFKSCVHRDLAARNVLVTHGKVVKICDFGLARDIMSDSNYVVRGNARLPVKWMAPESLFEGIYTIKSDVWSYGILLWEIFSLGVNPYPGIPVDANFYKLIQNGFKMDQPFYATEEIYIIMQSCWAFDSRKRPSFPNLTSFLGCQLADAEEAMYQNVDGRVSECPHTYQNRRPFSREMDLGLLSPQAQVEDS
Outline: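 Wild-type human FLT3 (1.2 μg) pre-incubated with compound 15 min at 25° C in 100 mM HEPES pH 7.5, 10 mM MgCl2, 25 mM NaCl, 1 mM DTT. Reaction started with substrate peptide and ATP (final 50 μM), run 30 min at 25° C; phosphorylation read by time-resolved fluorescence.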

Molm-13 cells = experiment: Leukemia cell proliferation inhibition test (ATPlite), Molm-13; assay type: cell-based; details: Homo sapiens, read-out: MOLM13 cell proliferation inhibition effect
Outline: as §1

[2] = MV4-11, 72 h, MV4-11, 72 hours culture, ATPlite, GI50 per method
[3] = GST-fused human FLT3 (564 to 993 aa), ATP 50 μM
[4] = MOLM-13, 72 h, Molm-13, 72 hours culture, ATPlite, GI50 per method

SMILES	IC50 (MV4-11 cells; [2]) [nM]	IC50 [1, 3] [nM]	IC50 (Molm-13 cells; [4]) [nM]	IC50 (MV4-11 cells; MV4-11, MV4-11 cell) [nM]	IC50 ([1]; FLT3 (WT)) [nM]	IC50 (Molm-13 cells; MOLM-13, MOLM13 cell) [nM]
CCCNc1nc(Nc2cc(C)ns2)ncc1C#CCCCNC(=O)[C@H](C)N(C)C(=O)/C=C/CN(C)C [Compound 9-30, (S,E)-4-(Dimethylamino)-N-methyl-N-(1-((5-(2-((3-methylisothiazol-5-yl)amino)-4-(propylamino)pyrimidin-5-yl)-4-pentyn-1-yl)amino)-1-oxopropan-2-yl)-2-butenamide]	< 10	< 10	< 10			
CCCNc1nc(Nc2ccc(C(N)=O)cc2)ncc1C(=O)Nc1cccc(NC(=O)[C@H](C)N(C)C(=O)/C=C/C(C)N(C)C)c1 (stereo partly drawn) [Compound 4-14]	< 10	< 10	< 10			
CCCNc1nc(Nc2ccc(C(N)=O)cc2)ncc1C(=O)Nc1cccc(NC(=O)[C@H](C)N(C)C(=O)/C=C/CNCC(F)(F)F)c1 [Compound 4-13]	10 to 100	< 10	10 to 100			
CCCNc1nc(Nc2ccc(Cn3ccnn3)cc2)ncc1C#CCCCNC(=O)CN(C)C(=O)/C=C/CN(C)C [Compound 12-12]	10 to 100	10 to 100	< 10			
C=CC(=O)NCC(=O)NC(CC)CCNC(=O)c1cnc(NCCc2ccncc2)nc1NCCC (stereo not drawn) [Compound 1-6]	10 to 100	< 10	10 to 100			
CCCNc1nc(NCCc2ccncc2)ncc1C(=O)Nc1cccc(NC(=O)CNC(=O)/C=C/CN(C)C)c1 [Compound 2-9]	< 10	< 10	< 10			
CCCNc1nc(Nc2ccc(C(N)=O)cc2)ncc1C(=O)NCCCNC(=O)[C@H](C)N(C)C(=O)/C=C/CN(C)C [Compound 5-1, (S,E)-2-((4-carbamoylphenyl)amino)-N-(3-(2-(4-(dimethylamino)-N-methyl-2-butenamido)propaneamido)propyl)-4-(propylamino)pyrimidine-5-carboxamide]	< 10	< 10	< 10			
CCCNc1nc(Nc2ccc(C#N)cc2)ncc1C#CCCCNC(=O)[C@@H]1CCCN1C(=O)/C=C/CN(C)C [Compound 7-33, (S,E)-N-(5-(2-((4-Cyanophenyl)amino)-4-(propylamino)pyrimidin-5-yl)-4-pentyn-1-yl)-1-(4-(dimethylamino)-2-butenoyl)pyrrolidine-2-carboxamide]	< 10	< 10	< 10			
C[C@@H](C(=O)NCCCC#Cc1cnc(Nc2ccc(F)nc2)nc1NCC(F)(F)F)N(C)C(=O)/C=C/CN(C)C [Compound 10-33]	< 10	< 10	< 10			
C[C@@H](C(=O)NCCCC#Cc1cnc(Nc2cccc(F)c2)nc1NCCc1cccs1)N(C)C(=O)/C=C/CN(C)C [Compound 10-9]	10 to 100	< 10	10 to 100			
CCCNc1nc(Nc2ccnc(OC)c2)ncc1C#CCCCNC(=O)[C@@H]1CCCN1C(=O)/C=C/CN(C)C [Compound 9-35, (S,E)-1-(4-(Dimethylamino)-2-butenoyl)-N-(5-(2-((2-methoxypyridin-4-yl)amino)-4-(propylamino)pyrimidin-5-yl)-4-pentyn-1-yl)pyrrolidine-2-carboxamide]	< 10	< 10	< 10			
CN(C)C/C=C/C(=O)N(C)CC(=O)NCCCC#Cc1cnc(Nc2ccc(F)cc2)nc1NCC1CCOCC1 [Compound 10-18]	< 10	< 10	< 10			
CNc1nc(Nc2ccc3c(cnn3C)c2)ncc1C#CCCCNC(=O)[C@H](C)N(C)C(=O)/C=C/CN(C)C [Compound 10-52]	< 10	< 10	< 10			
CNc1nc(Nc2ccc(F)cc2)ncc1C#CCCCNC(=O)CN(C)C(=O)/C=C/CN(C)C [Compound 7-89]	< 10	< 10	< 10			
CNc1nc(Nc2ccc(F)cc2)ncc1C#CCCCNC(=O)[C@@H]1C[C@H](F)CN1C(=O)/C=C/CN(C)C [Compound 7-80, (2S,4S)-1-((E)-4-(Dimethylamino)-2-butenoyl)-4-fluoro-N-(5-(2-((4-fluorophenyl)amino)-4-(methylamino)pyrimidin-5-yl)-4-pentyn-1-yl)pyrrolidine-2-carboxamide]	< 10	< 10	< 10			
CCCCN(CC(=O)NCCCC#Cc1cnc(Nc2ccc(C#N)cc2)nc1NCCC)C(=O)/C=C/CN(C)C [Compound 7-70]	< 10	< 10	< 10			
COCCCNc1nc(Nc2ccc(F)cc2)ncc1C#CCCCNC(=O)CN(C)C(=O)/C=C/CN(C)C [Compound 10-27]	< 10	< 10	< 10			
CNc1nc(Nc2ccc3cn[nH]c3c2)ncc1C#CCCCNC(=O)[C@@H]1CCCN1C(=O)/C=C/CN(C)C [Compound 10-69]	< 10	< 10	< 10			
CCCNc1nc(Nc2cccc(F)c2)ncc1C#CCCCNC(=O)[C@@H]1C[C@@H](F)CN1C(=O)/C=C/CN(C)C [Compound 7-47]	< 10	< 10	< 10			
CCCN(C)c1nc(Nc2ccc(C(N)=O)cc2)ncc1C#CCCCNC(=O)[C@H](C)N(C)C(=O)/C=C/CN(C)C [Compound 9-6]	< 10	< 10	< 10			

More lines, now with the values ahead:

IC50 (MV4-11 cells; [2]) [nM]	IC50 [1, 3] [nM]	IC50 (Molm-13 cells; [4]) [nM]	IC50 (MV4-11 cells; MV4-11, MV4-11 cell) [nM]	IC50 ([1]; FLT3 (WT)) [nM]	IC50 (Molm-13 cells; MOLM-13, MOLM13 cell) [nM]	SMILES
< 10	< 10	< 10				CCCNc1nc(Nc2ccc(F)cc2)ncc1C#C[C@H]1C[C@@H](NC(=O)[C@H](C)N(C)C(=O)/C=C/CN(C)C)C1 [Compound 13-18]
< 10	< 10	< 10				CCCNc1nc(Nc2cccc(F)c2)ncc1C#C[C@@H]1CC[C@H](NC(=O)[C@H](C)N(C)C(=O)/C=C/CN(C)C)C1 [Compound 13-10]
			< 10	< 10	< 10	CNc1nc(Nc2ccc3c(F)nn(C)c3c2)ncc1C#CCCCNC(=O)[C@H](C)N(C)C(=O)/C=C/CN(C)C [Compound 21-50]
< 10	< 10	< 10				CCCNc1nc(Nc2ccnc(F)c2)ncc1C#C[C@H]1C[C@@H](NC(=O)[C@H](C)N(C)C(=O)/C=C/CN(C)C)C1 (relative stereo) [Compound 14-4, (E)-4-(Dimethylamino)-N—((S)-1-(((1S*,3R*)-3-((2-((2-fluoropyridin-4-yl)amino)-4-(propylamino)pyrimidin-5-yl)ethynyl)cyclobutyl)amino)-1-oxopropan-2-yl)-N-methyl-2-butenamide]
			< 10	< 10	10 to 100	CCCNc1nc(Nc2cncc(F)c2)ncc1C#CCCCNC(=O)[C@H](C)N(C)C(=O)/C=C/CN(C)C [Compound 22-8]
			< 10	< 10	< 10	CCCNc1nc(Nc2cnc3[nH]nc(C)c3c2)ncc1C#CCCCNC(=O)[C@H](C)N(C)C(=O)/C=C/CN(C)C [Compound 22-51, (S,E)-4-(Dimethylamino)-N-methyl-N-(1-((5-(2-((3-methyl-1H-pyrazolo[3,4-b]pyridin-5-yl)amino)-4-(propylamino)pyrimidin-5-yl)-4-pentyn-1-yl)amino)-1-oxopropan-2-yl)-2-butenamide]
			10 to 100	< 10	10 to 100	CCCNc1nc(Nc2cnc3ccccc3c2)ncc1C#CCCCNC(=O)[C@H](C)N(C)C(=O)/C=C/CN(C)C [Compound 22-3]
